Values of other authors in patent publication US11414421B2, “Process for the preparation of ribociclib succinate and its novel crystalline forms thereof” (NATCO PHARMA LTD, priority 2018, dated 2022).
Read-outs that look alike come from different tables or passages of the source.

- absorbs moisture (relative humidity 0-90-0% RH): up to 2.0%
- absorbs moisture (second value, printed as 0-90-0% RH): up to 0.5%
SMILES: CN(C)C(=O)c1cc2cnc(Nc3ccc(N4CCNCC4)cn3)nc2n1C1CCCC1.O=C(O)CCC(=O)O [Ribociclib succinate, 7-cyclopentyl-N,N-dimethyl-2-{[5-(piperazin-1-yl)pyridin-2-yl]amino}-7H-pyrrolo [2,3-d]pyrimidine-6-carboxamide succinate (1/1)]
